# “Also recorded” adds a separate entry of the source.
# System: microorganisms (e.g., bacteria, yeasts, fungi)
# Assay: Targeting peptide binding to target microorganisms (Table 3)
# Conditions: microorganism the targeting peptide binds; binding in aqueous buffers varied by peptide solubility, preferably 1x PBS
row,Substance,Target(s)
1,1T-46 (FSFKQRVMFRKEVERLR; Peptide with targeting and/or antimicrobial activity) [Peptide 1T-46],S. aureus; also recorded: S. epidermidis; also recorded: C. jeikeium; also recorded: C. xerosis; also recorded: C. striatum; also recorded: P. aeruginosa
2,1T-47 (VIKISVPGQVQMLIP; Peptide with targeting and/or antimicrobial activity) [Peptide 1T-47],S. mutans; also recorded: S. epidermidis; also recorded: P. aeruginosa
3,1T-48 (KLQVHHGRATHTLLLQPPLCAPGTIR; Peptide with targeting and/or antimicrobial activity) [Peptide 1T-48],S. aureus; also recorded: S. epidermidis; also recorded: C. jeikeium; also recorded: C. xerosis; also recorded: C. striatum; also recorded: P. aeruginosa
4,1T-49 (SLVRIHDQQPWVTRGAFIDAARTCS; Peptide with targeting and/or antimicrobial activity) [Peptide 1T-49],S. aureus; also recorded: S. epidermidis; also recorded: C. jeikeium; also recorded: P. aeruginosa
5,1T-50 (HSDEPIPNILFKSDSVH; Peptide with targeting and/or antimicrobial activity) [Peptide 1T-50],P. aeruginosa
6,1T-51 (GKPKRMPAEFIDGYGQALLAGA; Peptide with targeting and/or antimicrobial activity) [Peptide 1T-51],S. aureus; also recorded: P. aeruginosa
7,1T-52 (DEYPAKLPLSDKGATEPRRH; Peptide with targeting and/or antimicrobial activity) [Peptide 1T-52],S. aureus; also recorded: C. xerosis; also recorded: P. aeruginosa
8,1T-53 (SDILAEMFEKGELQTLVKDAAAKANA; Peptide with targeting and/or antimicrobial activity) [Peptide 1T-53],P. aeruginosa
9,1T-54 (RWVSCNPSWRIQ; Peptide with targeting and/or antimicrobial activity) [Peptide 1T-54],S. epidermidis; also recorded: C. xerosis; also recorded: C. striatum; also recorded: P. aeruginosa
10,1T-55 (NHKTLKEWKAKWGPEAVESWATLLG; Peptide with targeting and/or antimicrobial activity) [Peptide 1T-55],C. xerosis; also recorded: P. aeruginosa
11,1T-56 (LALIGAGIWMIRKG; Peptide with targeting and/or antimicrobial activity) [Peptide 1T-56],C. xerosis; also recorded: P. aeruginosa
12,1T-57 (RLEYRRLETQVEENPESGRRPMRG; Peptide with targeting and/or antimicrobial activity) [Peptide 1T-57],P. aeruginosa
13,1T-58 (CDDLHALERAGKLDALLSA; Peptide with targeting and/or antimicrobial activity) [Peptide 1T-58],P. aeruginosa
14,1T-59 (AVGNNLGKDNDSGHRGKKHRKHKHR; Peptide with targeting and/or antimicrobial activity) [Peptide 1T-59],S. aureus; also recorded: S. epidermidis; also recorded: P. aeruginosa
15,1T-60 (YLTSLGLDAAEQAQGLLTILKG; Peptide with targeting and/or antimicrobial activity) [Peptide 1T-60],S. aureus; also recorded: S. epidermidis; also recorded: C. jeikeium; also recorded: C. striatum; also recorded: P. aeruginosa
16,1T-61 (HATLLPAVREAISRQLLPALVPRG; Peptide with targeting and/or antimicrobial activity) [Peptide 1T-61],P. aeruginosa
17,1T-62 (GCKGCAQRDPCAEPEPYFRLR; Peptide with targeting and/or antimicrobial activity) [Peptide 1T-62],S. epidermidis; also recorded: P. aeruginosa
18,1T-63 (EPLILKELVRNLFLFCYARALR; Peptide with targeting and/or antimicrobial activity) [Peptide 1T-63],S. aureus; also recorded: S. epidermidis; also recorded: C. jeikeium; also recorded: C. xerosis; also recorded: C. striatum; also recorded: P. aeruginosa
19,1T-64 (QTVHHIHMHVLGQRQMHWPPG; Peptide with targeting and/or antimicrobial activity) [Peptide 1T-64],S. aureus; also recorded: S. epidermidis; also recorded: C. jeikeium; also recorded: C. xerosis; also recorded: C. striatum; also recorded: P. aeruginosa
20,1T-65 (HARAAVGVAELPRGAAVEVELIAAVRP; Peptide with targeting and/or antimicrobial activity) [Peptide 1T-65],S. mutans; also recorded: S. aureus; also recorded: S. epidermidis; also recorded: C. jeikeium; also recorded: C. xerosis; also recorded: C. striatum; also recorded: P. aeruginosa
21,1T-66 (DTDCLSRAYAQRIDELDKQYAGIDKPL; Peptide with targeting and/or antimicrobial activity) [Peptide 1T-66],S. mutans; also recorded: S. aureus; also recorded: S. epidermidis; also recorded: C. jeikeium; also recorded: C. xerosis; also recorded: C. striatum; also recorded: P. aeruginosa
22,1T-67 (GQRQRLTCGRVSGCSEGPSREAAR; Peptide with targeting and/or antimicrobial activity) [Peptide 1T-67],S. aureus; also recorded: S. epidermidis; also recorded: C. jeikeium; also recorded: C. xerosis; also recorded: C. striatum; also recorded: P. aeruginosa
23,1T-68 (GGTKEIVYQRG; Peptide with targeting and/or antimicrobial activity) [Peptide 1T-68],S. mutans; also recorded: S. aureus; also recorded: C. jeikeium; also recorded: C. xerosis; also recorded: C. striatum; also recorded: P. aeruginosa

row,Substance,Target(s)
1,1T-69 (ILSQEADRKKLF; Peptide with targeting and/or antimicrobial activity) [Peptide 1T-69],S. mutans; also recorded: P. aeruginosa
2,1T-70 (NRQAQGERAHGEQQG; Peptide with targeting and/or antimicrobial activity) [Peptide 1T-70],S. aureus; also recorded: C. jeikeium; also recorded: P. aeruginosa
3,1T-71 (KIDTNQWPPNKEG; Peptide with targeting and/or antimicrobial activity) [Peptide 1T-71],P. aeruginosa
4,1T-72 (EPTDGVACKER; Peptide with targeting and/or antimicrobial activity) [Peptide 1T-72],P. aeruginosa
5,1T-73 (GWWEELLHETILSKFKITKALELPIQL; Peptide with targeting and/or antimicrobial activity) [Peptide 1T-73],S. pneumoniae
6,1T-74 (DIDWGRKISCAAGVAYGAIDGCATTV; Peptide with targeting and/or antimicrobial activity) [Peptide 1T-74],S. pneumoniae
7,1T-75 (GVARGLQLGIKTRTQWGAATGAA; Peptide with targeting and/or antimicrobial activity) [Peptide 1T-75],S. pneumoniae
8,1T-76 (EMRLSKFFRDFILWRKK; Peptide with targeting and/or antimicrobial activity) [Peptide 1T-76],S. pneumoniae
9,1T-77 (EMRISRIILDFLFLRKK; Peptide with targeting and/or antimicrobial activity) [Peptide 1T-77],S. pneumoniae
10,1T-78 (FFKTIFVLILGALGVAAGLYIEKNYIDK; Peptide with targeting and/or antimicrobial activity) [Peptide 1T-78],S. pneumoniae
11,1T-79 (FGTPWSITNFWKKNFNDRPDFDSDRRRY; Peptide with targeting and/or antimicrobial activity) [Peptide 1T-79],S. pneumoniae
12,1T-80 (GGNLGPGFGVIIP; Peptide with targeting and/or antimicrobial activity) [Peptide 1T-80],S. pneumoniae
13,1T-81 (AIATGLDIVDGKFDGYLWA; Peptide with targeting and/or antimicrobial activity) [Peptide 1T-81],S. pneumoniae
14,1T-82 (FGVGVGIALFMAGYAIGKDLRKKFGKSC; Peptide with targeting and/or antimicrobial activity) [Peptide 1T-82],S. pneumoniae
15,1T-83 (QKPRKNETFIGYIQRYDIDGNGYQSLPCPQN; Peptide with targeting and/or antimicrobial activity) [Peptide 1T-83],S. pneumoniae
16,1T-84 (FRKKRYGLSILLWLNAFTNLVNSIHAFYMTLF; Peptide with targeting and/or antimicrobial activity) [Peptide 1T-84],S. pneumoniae
17,1T-86 (HRKNPVLGVGRRHRAHNVA; Peptide with targeting and/or antimicrobial activity) [Peptide 1T-86],S. mitis; also recorded: S. oralis; also recorded: S. salivarious
18,1T-87 (EAVGQDLVDAHHP; Peptide with targeting and/or antimicrobial activity) [Peptide 1T-87],S. mitis; also recorded: S. mutans; also recorded: S. oralis
19,1T-89 (HEDDKRRGMSVEVLGFEVVQHEE; Peptide with targeting and/or antimicrobial activity) [Peptide 1T-89],S. mitis; also recorded: S. mutans
20,1T-90 (RNVIGQVL; Peptide with targeting and/or antimicrobial activity) [Peptide 1T-90],S. gordonii; also recorded: S. mitis; also recorded: S. mutans; also recorded: S. oralis; also recorded: S. sanguinis
21,1T-91 (TSVRPGAAGAAVPAGAAGAAGAGWRWP; Peptide with targeting and/or antimicrobial activity) [Peptide 1T-91],S. mitis; also recorded: S. mutans; also recorded: S. oralis; also recorded: S. sanguinis
22,1T-92 (GQDEGQRRAGVGEGQGVDG; Peptide with targeting and/or antimicrobial activity) [Peptide 1T-92],S. mitis; also recorded: S. mutans
